Our source for the pest or weed control values is patent publication US8735322B2, “Herbicides” (Syngenta Limited, priority 2008, dated 2014).

Molecules are shown by their SMILES.

Common to all, as to assay type: in vivo
The subject of assay [1] is Amaranthus retroflexus (AMARE). Description: Example B post-emergence herbicidal activity, glasshouse pot test. The note with it: 312 h, rate 1000 g/ha, evaluated after 13 days, read-out: herbicidal damage AMARE (100=total damage to plant; 0=no damage to plant). As to the method: (§1) Seeds of a variety of test species were sown in standard soil in pots. After cultivation for one day (pre-emergence) or after 8 days cultivation (post-emergence) under controlled conditions in a glasshouse (at 24/16° C., day/night; 14 hours light; 65% humidity), the plants were sprayed with an aqueous spray solution derived from the formulation of the technical active ingredient in acetone/water (50:50) solution containing 0.5% Tween 20 (polyoxyethelyene sorbitan monolaurate, CAS RN 9005-64-5). The test plants were then grown in a glasshouse under controlled conditions in a glasshouse (at 24/16° C., day/night; 14 hours light; 65% humidity) and watered twice daily. After 13 days for pre and post-emergence, the test was evaluated (100=total damage to plant; 0=no damage to plant). Alopecurus myosuroides (ALOMY), Avena fatua (AVEFA), Setaria faberi (SETFA), Echinochloa crus-galli (ECHCG), Solanum nigrum (SOLNI) and Amaranthus retroflexus (AMARE) Post-Emergence Activity

Assay [2] deals with Setaria faberi (SETFA). The assay is described as above. The conditions noted are these: 312 h, rate 1000 g/ha, evaluated after 13 days, read-out: herbicidal damage SETFA (100=total damage to plant; 0=no damage to plant). The protocol:
as §1

Assay [3] concerns Avena fatua (AVEFA). The description is as above. The conditions noted are these: 312 h, rate 1000 g/ha, evaluated after 13 days, read-out: herbicidal damage AVEFA (100=total damage to plant; 0=no damage to plant). As to the method:
as §1

In assay [4] the test system is Echinochloa crus-galli (ECHCG). The assay is described as above. The conditions noted are these: 312 h, rate 1000 g/ha, evaluated after 13 days, read-out: herbicidal damage ECHCG (100=total damage to plant; 0=no damage to plant). The protocol: as §1
In assay [5] the test system is Alopecurus myosuroides (ALOMY). Described as above. The note with it: 312 h, rate 1000 g/ha, evaluated after 13 days, read-out: herbicidal damage ALOMY (100=total damage to plant; 0=no damage to plant). As to the method:
as §1

For assay [6], the system named is Solanum nigrum (SOLNI). The assay is described as above. The conditions noted are these: 312 h, rate 1000 g/ha, evaluated after 13 days, read-out: herbicidal damage SOLNI (100=total damage to plant; 0=no damage to plant). As to the method:
as §1

Assay [7] deals with Amaranthus retroflexus (AMARE). The assay is described as follows: Example B pre-emergence herbicidal activity, glasshouse pot test. The note with it: 312 h, rate 1000 g/ha, evaluated after 13 days, read-out: herbicidal damage AMARE (100=total damage to plant; 0=no damage to plant). As to the method:
as §1, with “Pre-Emergence” for “Post-Emergence”

Assay [8] relates to Setaria faberi (SETFA). The description is as above. The conditions noted are these: 312 h, rate 1000 g/ha, evaluated after 13 days, read-out: herbicidal damage SETFA (100=total damage to plant; 0=no damage to plant). As to the method:
as §1, with “Pre-Emergence” for “Post-Emergence”

In assay [9] the test system is Avena fatua (AVEFA). The assay is described as above. The conditions noted are these: 312 h, rate 1000 g/ha, evaluated after 13 days, read-out: herbicidal damage AVEFA (100=total damage to plant; 0=no damage to plant). As to the method:
as §1, with “Pre-Emergence” for “Post-Emergence”

Assay [10] deals with Echinochloa crus-galli (ECHCG). The description is as above. The conditions noted are these: 312 h, rate 1000 g/ha, evaluated after 13 days, read-out: herbicidal damage ECHCG (100=total damage to plant; 0=no damage to plant). The protocol:
as §1, with “Pre-Emergence” for “Post-Emergence”

The subject of assay [11] is Alopecurus myosuroides (ALOMY). The assay is described as above. The note with it: 312 h, rate 1000 g/ha, evaluated after 13 days, read-out: herbicidal damage ALOMY (100=total damage to plant; 0=no damage to plant). The protocol:
as §1, with “Pre-Emergence” for “Post-Emergence”

The test system of assay [12] is Solanum nigrum (SOLNI). The description is as above. The conditions noted are these: 312 h, rate 1000 g/ha, evaluated after 13 days, read-out: herbicidal damage SOLNI (100=total damage to plant; 0=no damage to plant). As to the method: as §1, with “Pre-Emergence” for “Post-Emergence”

In the case of `Cc1ccc(-c2cccnc2OCC2CC2)cc1C1=C(O)CC(CC2CCOCC2)CC1=O` (stereo not drawn) [Compound A-27], the pest or weed control at 1000 g/ha in assay [1] is 0%; in the assay on Setaria faberi (SETFA) [2] it was 60%; in the assay with Avena fatua (AVEFA) [3], 0%; in [4] it was 30%; in [5], 10%; with Solanum nigrum (SOLNI) [6] it was 0%. In addition, the pest or weed control at 1000 g/ha (in assay [7]; in the assay with Setaria faberi (SETFA) [8]; with Avena fatua (AVEFA) [9]; in assay [10]; in assay [11]; with Solanum nigrum (SOLNI) [12]) was 0% throughout.

As for `Cc1ccc(-c2ccc(OC(F)(F)F)cc2)cc1C1=C(O)CC(CC2CCOCC2)CC1=O` (stereo not drawn) [Compound A-29], the pest or weed control at 1000 g/ha worked out at 70% in [1]; 60% in the assay with Setaria faberi (SETFA) [2]; 0% in the assay on Avena fatua (AVEFA) [3]; 60% in assay [4]; 10% in [5]; 20% with Solanum nigrum (SOLNI) [6]. In addition, the pest or weed control at 1000 g/ha in [7] stood at 50%; in the assay with Setaria faberi (SETFA) [8], 0%; in the assay on Avena fatua (AVEFA) [9], 0%; in assay [10], 20%; in [11], 20%; in the assay on Solanum nigrum (SOLNI) [12], 30%.

`CCc1cc(-c2ccc(C)cc2)cc(CC)c1C1=C(O)CC(CC2CCOCC2)CC1=O` (stereo not drawn) [Compound A-33]: the pest or weed control at 1000 g/ha was 60% in assay [1]; 80% in the assay on Setaria faberi (SETFA) [2]; 70% in the assay on Avena fatua (AVEFA) [3]; 100% in [4]; 30% in assay [5]; 70% in the assay with Solanum nigrum (SOLNI) [6]. Further, the pest or weed control at 1000 g/ha in [7] amounted to 0%; with Setaria faberi (SETFA) [8], 100%; in the assay on Avena fatua (AVEFA) [9], 60%; in assay [10], 90%; in [11] it was 50%; in the assay with Solanum nigrum (SOLNI) [12], 0%.

For `CCc1cc(-c2ccc(Cl)cc2)cc(CC)c1C1=C(O)CC(CC2CCOCC2)CC1=O` (stereo not drawn) [Compound A-34], the pest or weed control at 1000 g/ha in assay [1] was 20%; in the assay on Setaria faberi (SETFA) [2], 90%; in the assay with Avena fatua (AVEFA) [3] it was 100%; in assay [4] it was 100%; in assay [5] it was 50%; in the assay on Solanum nigrum (SOLNI) [6], 0%. The pest or weed control at 1000 g/ha in [7] was 0%; in the assay with Setaria faberi (SETFA) [8], 90%; in the assay with Avena fatua (AVEFA) [9], 60%; in assay [10], 100%; in assay [11], 50%; in the assay on Solanum nigrum (SOLNI) [12] it was 0%.

For the molecule `Cc1ccc(-c2cc(C)c(C3=C(O)CC(CC4CCOCC4)CC3=O)c(C)c2)cc1` (stereo not drawn) [Compound A-36], the pest or weed control at 1000 g/ha in assay [1] stood at 0%; with Setaria faberi (SETFA) [2], 100%; in the assay on Avena fatua (AVEFA) [3], 70%; in assay [4], 100%; in [5], 70%; in the assay on Solanum nigrum (SOLNI) [6], 50%. For the same molecule, the pest or weed control at 1000 g/ha in assay [7] was 0%; in the assay on Setaria faberi (SETFA) [8], 100%; in the assay on Avena fatua (AVEFA) [9], 40%; in [10], 90%; in [11], 60%; in the assay on Solanum nigrum (SOLNI) [12] it was 0%.

Take `Cc1cc(-c2ccc(Cl)cc2)cc(C)c1C1=C(O)CC(CC2CCOCC2)CC1=O` (stereo not drawn) [Compound A-37]: the pest or weed control at 1000 g/ha in assay [1] amounted to 40%; in the assay on Setaria faberi (SETFA) [2], 100%; with Avena fatua (AVEFA) [3] it was 100%; in assay [4], 100%; in assay [5], 90%; in the assay on Solanum nigrum (SOLNI) [6], 70%. The pest or weed control at 1000 g/ha came out at 20% in assay [7]; 100% in the assay with Setaria faberi (SETFA) [8]; 90% with Avena fatua (AVEFA) [9]; 100% in assay [10]; 80% in assay [11]; 20% with Solanum nigrum (SOLNI) [12].

Turning to `Cc1cc(-c2ccc(C(F)(F)F)cc2)cc(C)c1C1=C(O)CC(CC2CCOCC2)CC1=O` (stereo not drawn) [Compound A-38], the pest or weed control at 1000 g/ha in assay [1] was 0%; in the assay with Setaria faberi (SETFA) [2] it was 100%; with Avena fatua (AVEFA) [3], 40%; in [4], 90%; in assay [5] it was 30%; in the assay with Solanum nigrum (SOLNI) [6] it was 20%. Moreover, the pest or weed control at 1000 g/ha in assay [7] came to 0%; with Setaria faberi (SETFA) [8], 100%; with Avena fatua (AVEFA) [9], 20%; in [10], 100%; in assay [11], 30%; in the assay on Solanum nigrum (SOLNI) [12] it was 0%.

For `Cc1ccc(-c2ccc(F)cc2)cc1C1=C(O)CC(CC2CCOCC2)CC1=O` (stereo not drawn) [Compound A-39], the pest or weed control at 1000 g/ha in assay [1] was 0%; in the assay on Setaria faberi (SETFA) [2], 90%; in the assay with Avena fatua (AVEFA) [3] it was 80%; in assay [4], 80%; in assay [5], 60%; with Solanum nigrum (SOLNI) [6], 0%. For the same molecule, the pest or weed control at 1000 g/ha (in assay [7]; with Setaria faberi (SETFA) [8]; in the assay on Avena fatua (AVEFA) [9]; in assay [10]; in [11]; in the assay on Solanum nigrum (SOLNI) [12]) was 0% in each case.

Turning to `Cc1ccc(-c2ccc(F)c(F)c2)cc1C1=C(O)CC(CC2CCOCC2)CC1=O` (stereo not drawn) [Compound A-40], the pest or weed control at 1000 g/ha in assay [1] was 30%; in the assay on Setaria faberi (SETFA) [2], 90%; with Avena fatua (AVEFA) [3], 70%; in assay [4], 100%; in assay [5] it was 70%; in the assay with Solanum nigrum (SOLNI) [6], 0%. For the same molecule, the pest or weed control at 1000 g/ha in assay [7] was 0%; in the assay on Setaria faberi (SETFA) [8], 0%; in the assay on Avena fatua (AVEFA) [9], 0%; in [10] it was 30%; in assay [11], 0%; in the assay with Solanum nigrum (SOLNI) [12], 0%.

`Cc1cc(-c2ccccc2)cc(C)c1C1=C(O)CC(CC2CCOCC2)CC1=O` (stereo not drawn) [Compound A-41]: the pest or weed control at 1000 g/ha amounted to 40% in assay [1]; 100% with Setaria faberi (SETFA) [2]; 70% in the assay on Avena fatua (AVEFA) [3]; 100% in [4]; 90% in [5]; 40% with Solanum nigrum (SOLNI) [6]. Further, the pest or weed control at 1000 g/ha was determined as 0% in assay [7]; 100% in the assay with Setaria faberi (SETFA) [8]; 80% in the assay on Avena fatua (AVEFA) [9]; 100% in [10]; 90% in assay [11]; 0% in the assay on Solanum nigrum (SOLNI) [12].
